Data as given in the kinase profiling compilation of Christmann-Franck et al. (2016).

Legend:
Experiment in all cases: radiometric filter-binding kinase assay, Kinase HotSpot
CDC42BPB (human) = CDC42BPB (human) (UniProt Q9Y5S2); conditions: compound 0.5 µM; ATP 10 µM
BRSK2 (human) = BRSK2 (human) (UniProt Q8IWQ3); conditions: compound 0.5 µM; ATP 10 µM
MAP3K8 (human) = MAP3K8 (human) (UniProt P41279); conditions: compound 0.5 µM; ATP 10 µM
ROS1 (human) = ROS1 (human) (UniProt P08922); conditions: compound 0.5 µM; ATP 10 µM
MAP3K14 (human) = MAP3K14 (human) (UniProt Q99558); conditions: compound 0.5 µM; ATP 10 µM
WNK2 (human) = WNK2 (human) (UniProt Q9Y3S1); conditions: compound 0.5 µM; ATP 10 µM
CHEK1 (human) = CHEK1 (human) (UniProt O14757); conditions: compound 0.5 µM; ATP 10 µM
GSK3B (human) = GSK3B (human) (UniProt P49841); conditions: compound 0.5 µM; ATP 10 µM
PRKACA (human) = PRKACA (human) (UniProt P17612); conditions: compound 0.5 µM
PHKG2 (human) = PHKG2 (human) (UniProt P15735); conditions: compound 0.5 µM; ATP 10 µM
PRKCB2 (human) = PRKCB2 (human) (UniProt P05771); conditions: compound 0.5 µM; ATP 10 µM
PRKCB2 (human), sequence (P05771 whole entry, looked up): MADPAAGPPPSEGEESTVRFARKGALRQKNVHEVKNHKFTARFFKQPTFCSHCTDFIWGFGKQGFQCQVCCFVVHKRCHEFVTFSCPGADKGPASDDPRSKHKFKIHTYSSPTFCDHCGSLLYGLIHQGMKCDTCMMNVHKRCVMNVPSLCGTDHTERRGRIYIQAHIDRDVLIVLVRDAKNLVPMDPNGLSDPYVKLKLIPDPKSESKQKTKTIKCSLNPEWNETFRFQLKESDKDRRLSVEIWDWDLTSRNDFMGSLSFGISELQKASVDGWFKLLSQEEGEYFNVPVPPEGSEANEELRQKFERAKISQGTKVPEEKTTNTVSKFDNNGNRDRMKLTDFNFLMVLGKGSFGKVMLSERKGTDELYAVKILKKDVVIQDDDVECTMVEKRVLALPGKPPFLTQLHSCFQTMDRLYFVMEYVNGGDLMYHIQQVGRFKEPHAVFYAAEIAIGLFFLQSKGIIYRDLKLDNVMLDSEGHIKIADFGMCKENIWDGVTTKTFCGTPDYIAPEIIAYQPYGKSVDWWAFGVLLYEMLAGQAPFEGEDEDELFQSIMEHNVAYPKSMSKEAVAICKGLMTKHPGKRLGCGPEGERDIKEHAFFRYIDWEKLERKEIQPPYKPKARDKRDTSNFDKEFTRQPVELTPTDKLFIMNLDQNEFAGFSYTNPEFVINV

FLT1 (human) = FLT1 (human) (UniProt P17948); conditions: compound 0.5 µM; ATP 10 µM
TEC (human) = TEC (human) (UniProt P42680); conditions: compound 0.5 µM; ATP 10 µM
AURKC (human) = AURKC (human) (UniProt Q9UQB9); conditions: compound 0.5 µM; ATP 10 µM
CDK2 CCNE1 (human) = CDK2 CCNE1 (human) (UniProt P24941+P24864); conditions: compound 0.5 µM
CDK2 CCNE1 (human), sequence (P24864 whole entry, looked up, other chains not shown): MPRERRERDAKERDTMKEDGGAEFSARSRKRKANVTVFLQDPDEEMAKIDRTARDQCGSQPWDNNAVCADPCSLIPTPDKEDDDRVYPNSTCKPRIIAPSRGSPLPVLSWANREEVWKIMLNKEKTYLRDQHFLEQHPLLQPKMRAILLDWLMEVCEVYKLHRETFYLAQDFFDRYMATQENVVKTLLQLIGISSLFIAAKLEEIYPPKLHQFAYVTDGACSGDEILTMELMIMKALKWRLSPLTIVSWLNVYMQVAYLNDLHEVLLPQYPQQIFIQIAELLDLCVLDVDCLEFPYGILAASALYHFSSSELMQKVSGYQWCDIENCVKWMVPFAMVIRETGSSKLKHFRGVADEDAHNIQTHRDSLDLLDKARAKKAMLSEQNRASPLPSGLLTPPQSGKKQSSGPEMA

ADRBK1 (human) = ADRBK1 (human) (UniProt P25098); conditions: compound 0.5 µM; ATP 10 µM
TEK (human) = TEK (human) (UniProt Q02763); conditions: compound 0.5 µM; ATP 10 µM
STK24 (human) = STK24 (human) (UniProt Q9Y6E0); conditions: compound 0.5 µM; ATP 10 µM
MAPK1 (human) = MAPK1 (human) (UniProt P28482); conditions: compound 0.5 µM; ATP 10 µM
MAPKAPK2 (human) = MAPKAPK2 (human) (UniProt P49137); conditions: compound 0.5 µM; ATP 10 µM
NEK9 (human) = NEK9 (human) (UniProt Q8TD19); conditions: compound 0.5 µM; ATP 10 µM
STK17A (human) = STK17A (human) (UniProt Q9UEE5); conditions: compound 0.5 µM; ATP 10 µM
CDK4 CCND1 (human) = CDK4 CCND1 (human) (UniProt P24385+P11802); conditions: compound 0.5 µM
HIPK3 (human) = HIPK3 (human) (UniProt Q9H422); conditions: compound 0.5 µM; ATP 10 µM
MLTK (human) = MLTK (human) (UniProt Q9NYL2); conditions: compound 0.5 µM; ATP 10 µM
MLTK (human), sequence (Q9NYL2 whole entry, looked up): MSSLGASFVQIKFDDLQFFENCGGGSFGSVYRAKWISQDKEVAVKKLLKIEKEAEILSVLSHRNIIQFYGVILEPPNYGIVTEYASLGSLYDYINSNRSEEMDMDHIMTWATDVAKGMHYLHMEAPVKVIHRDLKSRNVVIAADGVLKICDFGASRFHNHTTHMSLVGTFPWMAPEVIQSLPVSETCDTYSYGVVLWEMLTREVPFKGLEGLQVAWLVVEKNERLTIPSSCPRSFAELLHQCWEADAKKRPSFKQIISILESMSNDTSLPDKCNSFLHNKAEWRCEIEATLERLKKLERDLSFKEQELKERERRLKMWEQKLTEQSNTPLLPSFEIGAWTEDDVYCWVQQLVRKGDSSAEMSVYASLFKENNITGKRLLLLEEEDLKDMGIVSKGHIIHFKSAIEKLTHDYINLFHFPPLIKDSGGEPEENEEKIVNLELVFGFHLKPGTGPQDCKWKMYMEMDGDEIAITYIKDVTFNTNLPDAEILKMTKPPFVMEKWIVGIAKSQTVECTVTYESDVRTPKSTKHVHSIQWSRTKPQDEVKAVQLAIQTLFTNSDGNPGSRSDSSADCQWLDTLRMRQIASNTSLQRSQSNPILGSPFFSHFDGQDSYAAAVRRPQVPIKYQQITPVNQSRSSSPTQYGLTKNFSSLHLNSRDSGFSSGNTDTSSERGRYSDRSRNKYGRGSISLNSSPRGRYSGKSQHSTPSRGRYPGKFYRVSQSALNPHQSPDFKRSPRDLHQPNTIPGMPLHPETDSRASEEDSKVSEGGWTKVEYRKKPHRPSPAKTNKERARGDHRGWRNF

AKT2 (human) = AKT2 (human) (UniProt P31751); conditions: compound 0.5 µM; ATP 10 µM
TAOK3 (human) = TAOK3 (human) (UniProt Q9H2K8); conditions: compound 0.5 µM; ATP 10 µM
CDK1 CCNA2 (human) = CDK1 CCNA2 (human) (UniProt P06493+P20248); conditions: compound 0.5 µM
CDK1 CCNA2 (human), sequence (P06493 whole entry, looked up): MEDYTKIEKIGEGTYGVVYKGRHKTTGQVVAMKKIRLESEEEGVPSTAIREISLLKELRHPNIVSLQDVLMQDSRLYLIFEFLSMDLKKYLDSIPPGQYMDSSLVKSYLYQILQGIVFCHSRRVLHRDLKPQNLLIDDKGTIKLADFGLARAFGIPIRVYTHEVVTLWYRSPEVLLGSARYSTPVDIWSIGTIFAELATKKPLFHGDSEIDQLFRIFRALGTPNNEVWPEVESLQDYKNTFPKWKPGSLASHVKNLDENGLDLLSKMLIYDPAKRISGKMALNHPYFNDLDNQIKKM
CDK1 CCNA2 (human), sequence (P20248 whole entry, looked up): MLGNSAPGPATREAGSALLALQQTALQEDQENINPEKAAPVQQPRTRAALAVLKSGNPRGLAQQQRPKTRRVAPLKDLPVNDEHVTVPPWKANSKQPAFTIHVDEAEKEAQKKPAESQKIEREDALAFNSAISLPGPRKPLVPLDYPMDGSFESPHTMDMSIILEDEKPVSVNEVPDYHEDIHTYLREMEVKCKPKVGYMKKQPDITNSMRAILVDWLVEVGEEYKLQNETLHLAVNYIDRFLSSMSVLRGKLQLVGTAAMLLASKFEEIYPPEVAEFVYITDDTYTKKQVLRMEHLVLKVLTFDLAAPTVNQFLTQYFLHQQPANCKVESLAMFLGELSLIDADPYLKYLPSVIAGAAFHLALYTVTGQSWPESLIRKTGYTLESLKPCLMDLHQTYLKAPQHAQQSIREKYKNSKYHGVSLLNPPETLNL

OXSR1 (human) = OXSR1 (human) (UniProt O95747); conditions: compound 0.5 µM; ATP 10 µM
OXSR1 (human), sequence (O95747 whole entry, looked up): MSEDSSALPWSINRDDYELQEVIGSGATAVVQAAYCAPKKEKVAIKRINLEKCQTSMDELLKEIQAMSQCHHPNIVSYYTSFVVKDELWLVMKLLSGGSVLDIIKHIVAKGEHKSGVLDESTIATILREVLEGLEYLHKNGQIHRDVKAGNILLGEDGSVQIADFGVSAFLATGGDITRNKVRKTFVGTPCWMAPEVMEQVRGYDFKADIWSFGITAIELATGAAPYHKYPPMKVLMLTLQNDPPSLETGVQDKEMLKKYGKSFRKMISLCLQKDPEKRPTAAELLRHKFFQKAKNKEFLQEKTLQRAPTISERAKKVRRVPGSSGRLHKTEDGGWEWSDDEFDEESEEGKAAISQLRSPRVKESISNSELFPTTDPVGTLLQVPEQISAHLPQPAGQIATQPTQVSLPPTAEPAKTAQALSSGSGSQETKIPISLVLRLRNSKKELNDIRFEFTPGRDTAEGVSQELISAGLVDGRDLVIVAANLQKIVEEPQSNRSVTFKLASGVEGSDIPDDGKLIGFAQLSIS

ITK (human) = ITK (human) (UniProt Q08881); conditions: compound 0.5 µM; ATP 10 µM
CSK (human) = CSK (human) (UniProt P41240); conditions: compound 0.5 µM; ATP 10 µM
MAPK8 (human) = MAPK8 (human) (UniProt P45983); conditions: compound 0.5 µM; ATP 10 µM
MAPK8 (human), sequence (P45983 whole entry, looked up): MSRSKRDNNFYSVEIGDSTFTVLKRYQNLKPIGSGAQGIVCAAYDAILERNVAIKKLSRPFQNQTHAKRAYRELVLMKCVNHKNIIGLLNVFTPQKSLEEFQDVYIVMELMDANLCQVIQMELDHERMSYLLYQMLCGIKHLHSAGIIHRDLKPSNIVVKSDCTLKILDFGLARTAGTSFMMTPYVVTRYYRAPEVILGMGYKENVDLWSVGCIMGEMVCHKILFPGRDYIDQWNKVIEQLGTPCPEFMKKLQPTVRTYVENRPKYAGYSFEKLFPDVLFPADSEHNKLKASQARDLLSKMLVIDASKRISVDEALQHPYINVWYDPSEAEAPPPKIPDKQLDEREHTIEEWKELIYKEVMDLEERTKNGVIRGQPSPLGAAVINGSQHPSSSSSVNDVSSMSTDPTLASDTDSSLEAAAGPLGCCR

CAMK2G (human) = CAMK2G (human) (UniProt Q13555); conditions: compound 0.5 µM; ATP 10 µM
CAMK2G (human), sequence (Q13555 whole entry, looked up): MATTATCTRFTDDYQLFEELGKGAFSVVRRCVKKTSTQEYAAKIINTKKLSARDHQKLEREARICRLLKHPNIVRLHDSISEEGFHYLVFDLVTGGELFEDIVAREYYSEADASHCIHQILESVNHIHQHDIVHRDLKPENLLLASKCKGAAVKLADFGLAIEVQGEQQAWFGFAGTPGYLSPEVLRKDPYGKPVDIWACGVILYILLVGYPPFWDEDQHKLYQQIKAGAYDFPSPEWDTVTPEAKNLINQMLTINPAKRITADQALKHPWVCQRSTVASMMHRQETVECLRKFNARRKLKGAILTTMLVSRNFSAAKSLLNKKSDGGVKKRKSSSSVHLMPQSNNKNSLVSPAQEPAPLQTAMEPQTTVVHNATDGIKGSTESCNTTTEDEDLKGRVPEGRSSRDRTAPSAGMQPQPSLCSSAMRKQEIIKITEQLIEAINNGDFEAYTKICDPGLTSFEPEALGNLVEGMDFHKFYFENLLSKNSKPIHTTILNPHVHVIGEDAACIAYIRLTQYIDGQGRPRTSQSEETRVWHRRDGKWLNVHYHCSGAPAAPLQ

KDR (human) = KDR (human) (UniProt P35968); conditions: compound 0.5 µM; ATP 10 µM
IKBKB (human) = IKBKB (human) (UniProt O14920); conditions: compound 0.5 µM; ATP 10 µM
MAP3K3 (human) = MAP3K3 (human) (UniProt Q99759); conditions: compound 0.5 µM; ATP 10 µM
MAP3K3 (human), sequence (Q99759 whole entry, looked up): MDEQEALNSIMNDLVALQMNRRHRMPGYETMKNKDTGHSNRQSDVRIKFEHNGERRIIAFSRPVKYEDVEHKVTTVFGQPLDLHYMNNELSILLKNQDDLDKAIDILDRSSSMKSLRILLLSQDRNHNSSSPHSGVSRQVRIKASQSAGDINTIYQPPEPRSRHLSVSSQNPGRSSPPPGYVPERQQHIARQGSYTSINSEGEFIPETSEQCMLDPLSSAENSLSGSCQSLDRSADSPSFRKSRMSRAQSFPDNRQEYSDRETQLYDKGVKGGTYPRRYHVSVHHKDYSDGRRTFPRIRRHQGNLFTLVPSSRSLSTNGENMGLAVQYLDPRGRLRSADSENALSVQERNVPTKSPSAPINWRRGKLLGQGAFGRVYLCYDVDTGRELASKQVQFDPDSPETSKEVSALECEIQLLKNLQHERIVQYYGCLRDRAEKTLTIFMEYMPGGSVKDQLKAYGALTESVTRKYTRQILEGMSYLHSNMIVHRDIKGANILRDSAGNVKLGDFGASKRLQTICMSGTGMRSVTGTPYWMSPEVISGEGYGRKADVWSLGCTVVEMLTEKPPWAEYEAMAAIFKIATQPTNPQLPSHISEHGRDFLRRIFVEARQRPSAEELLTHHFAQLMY

GRK4 (human) = GRK4 (human) (UniProt P32298); conditions: compound 0.5 µM; ATP 10 µM
ULK1 (human) = ULK1 (human) (UniProt O75385); conditions: compound 0.5 µM; ATP 10 µM
JAK2 JH1 JH2 (human) = JAK2 JH1 JH2 (human) (UniProt O60674); conditions: compound 0.5 µM; ATP 10 µM
GRK7 (human) = GRK7 (human) (UniProt Q8WTQ7); conditions: compound 0.5 µM; ATP 10 µM
HIPK1 (human) = HIPK1 (human) (UniProt Q86Z02); conditions: compound 0.5 µM; ATP 10 µM
ULK2 (human) = ULK2 (human) (UniProt Q8IYT8); conditions: compound 0.5 µM; ATP 10 µM

## O=c1c(-c2ccc(F)cc2)c(-c2ccncc2)[nH]n1-c1ccc(Cl)cc1
CDC42BPB (human)
  residual activity: 103%
BRSK2 (human)
  residual activity: 90.8%
MAP3K8 (human)
  residual activity: 87.1%
ROS1 (human)
  residual activity: 97.6%
MAP3K14 (human)
  residual activity: 102%
WNK2 (human)
  residual activity: 112%
CHEK1 (human)
  residual activity: 101%
GSK3B (human)
  residual activity: 91.6%
PRKACA (human); ATP 10 µM
  residual activity: 90.7%
PHKG2 (human)
  residual activity: 121%
PRKCB2 (human)
  residual activity: 92.4%
FLT1 (human)
  residual activity: 81.3%
TEC (human)
  residual activity: 112%
AURKC (human)
  residual activity: 100%
CDK2 CCNE1 (human); ATP 10 µM
  residual activity: 89.1%
ADRBK1 (human)
  residual activity: 106%
TEK (human)
  residual activity: 94.4%
STK24 (human)
  residual activity: 111%
MAPK1 (human)
  residual activity: 77.3%
MAPKAPK2 (human)
  residual activity: 98.5%
NEK9 (human)
  residual activity: 107%
STK17A (human)
  residual activity: 105%
CDK4 CCND1 (human); ATP 10 µM
  residual activity: 102%
HIPK3 (human)
  residual activity: 101%
MLTK (human)
  residual activity: 91.2%
AKT2 (human)
  residual activity: 97.8%
TAOK3 (human)
  residual activity: 89.5%
CDK1 CCNA2 (human); ATP 10 µM
  residual activity: 83.1%
OXSR1 (human)
  residual activity: 83.3%
ITK (human)
  residual activity: 79.7%
CSK (human)
  residual activity: 86.1%
MAPK8 (human)
  residual activity: 90.2%
CAMK2G (human)
  residual activity: 109%
KDR (human)
  residual activity: 90.6%
IKBKB (human)
  residual activity: 102%
MAP3K3 (human)
  residual activity: 96.2%
GRK4 (human)
  residual activity: 97.9%
ULK1 (human)
  residual activity: 103%
JAK2 JH1 JH2 (human)
  residual activity: 95.1%

## c1ccc(-c2cnc(Nc3ccc(OCCN4CCCC4)cc3)s2)cc1
GRK7 (human)
  residual activity: 90.2%
CDC42BPB (human)
  residual activity: 96.7%
BRSK2 (human)
  residual activity: 79.3%
MAP3K8 (human)
  residual activity: 97.2%
ROS1 (human)
  residual activity: 96.9%
MAP3K14 (human)
  residual activity: 81.9%
WNK2 (human)
  residual activity: 119%
CHEK1 (human)
  residual activity: 86.6%
GSK3B (human)
  residual activity: 100%
PRKACA (human); ATP 10 µM
  residual activity: 102%
PHKG2 (human)
  residual activity: 97%
PRKCB2 (human)
  residual activity: 104%
FLT1 (human)
  residual activity: 74.5%
TEC (human)
  residual activity: 106%
AURKC (human)
  residual activity: 94.9%
HIPK1 (human)
  residual activity: 91.3%
CDK2 CCNE1 (human); ATP 10 µM
  residual activity: 85.7%
ADRBK1 (human)
  residual activity: 95.8%
TEK (human)
  residual activity: 102%
STK24 (human)
  residual activity: 99.6%
MAPK1 (human)
  residual activity: 83.4%
NEK9 (human)
  residual activity: 101%
STK17A (human)
  residual activity: 66.2%
CDK4 CCND1 (human); ATP 10 µM
  residual activity: 61.2%
HIPK3 (human)
  residual activity: 64.8%
MLTK (human)
  residual activity: 25.9%
AKT2 (human)
  residual activity: 92.4%
TAOK3 (human)
  residual activity: 87.4%
CDK1 CCNA2 (human); ATP 10 µM
  residual activity: 95.2%
OXSR1 (human)
  residual activity: 85.3%
ITK (human)
  residual activity: 85.2%
CSK (human)
  residual activity: 89.9%
MAPK8 (human)
  residual activity: 92.4%
CAMK2G (human)
  residual activity: 66.9%
KDR (human)
  residual activity: 76.1%
IKBKB (human)
  residual activity: 98.1%
MAP3K3 (human)
  residual activity: 99.2%
GRK4 (human)
  residual activity: 98.3%
ULK2 (human)
  residual activity: 78.3%
ULK1 (human)
  residual activity: 127%
JAK2 JH1 JH2 (human)
  residual activity: 92.7%

## O=c1[nH]c2ccccc2n1C1CCN(Cc2ccc(-c3nc4cc5[nH]cnc5cc4nc3-c3ccccc3)cc2)CC1
GRK7 (human)
  residual activity: 98.5%
CDC42BPB (human)
  residual activity: 101%
BRSK2 (human)
  residual activity: 106%
MAP3K8 (human)
  residual activity: 95.2%
ROS1 (human)
  residual activity: 101%
MAP3K14 (human)
  residual activity: 96.8%
WNK2 (human)
  residual activity: 115%
CHEK1 (human)
  residual activity: 107%
GSK3B (human)
  residual activity: 113%
PRKACA (human)
  residual activity: 106%
PHKG2 (human)
  residual activity: 104%
PRKCB2 (human)
  residual activity: 105%
FLT1 (human)
  residual activity: 92.2%
TEC (human)
  residual activity: 162%
AURKC (human)
  residual activity: 96%
HIPK1 (human)
  residual activity: 106%
CDK2 CCNE1 (human)
  residual activity: 95.6%
ADRBK1 (human)
  residual activity: 95.3%
TEK (human)
  residual activity: 102%
STK24 (human)
  residual activity: 90.7%
MAPK1 (human)
  residual activity: 112%
MAPKAPK2 (human)
  residual activity: 98.7%
NEK9 (human)
  residual activity: 99.2%
STK17A (human)
  residual activity: 98.2%
CDK4 CCND1 (human)
  residual activity: 108%
HIPK3 (human)
  residual activity: 102%
MLTK (human)
  residual activity: 106%
AKT2 (human)
  residual activity: 96.8%
TAOK3 (human)
  residual activity: 111%
CDK1 CCNA2 (human)
  residual activity: 102%
OXSR1 (human)
  residual activity: 102%
ITK (human)
  residual activity: 99.8%
CSK (human)
  residual activity: 101%
MAPK8 (human)
  residual activity: 89.6%
CAMK2G (human)
  residual activity: 105%
KDR (human)
  residual activity: 90.9%
IKBKB (human)
  residual activity: 101%
MAP3K3 (human)
  residual activity: 101%
GRK4 (human)
  residual activity: 104%
ULK1 (human)
  residual activity: 96.7%
JAK2 JH1 JH2 (human)
  residual activity: 104%

## O=S(=O)(NCCNC/C=C/c1ccc(Br)cc1)c1cccc2cnccc12
CDC42BPB (human)
  residual activity: 99.5%
BRSK2 (human)
  residual activity: 92.4%
MAP3K8 (human)
  residual activity: 99.4%
ROS1 (human)
  residual activity: 99.6%
MAP3K14 (human)
  residual activity: 83.6%
WNK2 (human)
  residual activity: 99.4%
CHEK1 (human)
  residual activity: 90.8%
GSK3B (human)
  residual activity: 83.5%
PRKACA (human); ATP 10 µM
  residual activity: 10.5%
PHKG2 (human)
  residual activity: 88.8%
PRKCB2 (human)
  residual activity: 90.2%
FLT1 (human)
  residual activity: 90.8%
TEC (human)
  residual activity: 102%
AURKC (human)
  residual activity: 89%
HIPK1 (human)
  residual activity: 91.4%
CDK2 CCNE1 (human); ATP 10 µM
  residual activity: 99.3%
ADRBK1 (human)
  residual activity: 91.3%
TEK (human)
  residual activity: 99.8%
STK24 (human)
  residual activity: 72%
MAPK1 (human)
  residual activity: 108%
NEK9 (human)
  residual activity: 99.3%
STK17A (human)
  residual activity: 100%
CDK4 CCND1 (human); ATP 10 µM
  residual activity: 93.9%
HIPK3 (human)
  residual activity: 81.7%
MLTK (human)
  residual activity: 105%
AKT2 (human)
  residual activity: 75.4%
TAOK3 (human)
  residual activity: 95.4%
CDK1 CCNA2 (human); ATP 10 µM
  residual activity: 95.3%
OXSR1 (human)
  residual activity: 95.9%
ITK (human)
  residual activity: 86.8%
CSK (human)
  residual activity: 95.6%
MAPK8 (human)
  residual activity: 92.7%
CAMK2G (human)
  residual activity: 98.7%
KDR (human)
  residual activity: 79.1%
IKBKB (human)
  residual activity: 89.5%
MAP3K3 (human)
  residual activity: 85.4%
GRK4 (human)
  residual activity: 95.8%
ULK2 (human)
  residual activity: 98.9%
ULK1 (human)
  residual activity: 102%
JAK2 JH1 JH2 (human)
  residual activity: 109%

## CN[C@@H]1C[C@H]2O[C@@](C)([C@@H]1OC)n1c3ccccc3c3c4c(c5c6ccccc6n2c5c31)C(=O)NC4
GRK7 (human)
  residual activity: 0.737%
BRSK2 (human)
  residual activity: 3.53%
CHEK1 (human)
  residual activity: 1.63%
PRKACA (human); ATP 10 µM
  residual activity: 1.93%
PHKG2 (human)
  residual activity: 3.42%
ITK (human)
  residual activity: 2.89%
CSK (human)
  residual activity: 8.01%
